How the values were obtained:
[1] = system: MDA-MB-231 xenograph tumors; test: Combined analysis of DCP + control mice: Day 42,43 relative tumor volume and DCP/APCP; format: in vivo, nude mice
Method: Standard ANOVA models for group effects, curve fitting, and stepwise regression analyses were carried out using SPSS Graduate Pack 15.0 for Windows (2006), with p<0.05 used to determine significance.
Table 7 gives the plasma cytokine and relative tumor volume Spearman rank order correlations for the 12 DCP+ control mice (Control [n=3; from 1st experiment]; 23 mg/(kg d) DCP [n=5; from 2nd experiment]; and 69 mg/(kg d) DCP [n=4; from 2nd experiment]).
To further determine significant causal and correlational linkages among DCP dosage, plasma cytokine changes, and relative tumor volume, the following curve fitting analyses were carried out with the 12 DCP+ control mice. First, plotting DCP versus Day 42,43 Relative Tumor Volume yielded a significant quadratic relationship (FIG. 11). Second, curve fitting each cytokine versus Day 42,43 Relative Tumor Volume found no significant linear relationship and only one significant quadratic relationship, i.e., with IL-12 (p=0.004; FIG. 12). Third, plotting DCP versus IL-12 yielded a weakly significant quadratic relationship (p=0.048; FIG. 13).
Substantially more significant analogous plots were generated by first carrying out the Table 8 stepwise regression analysis which derived the DCP antitumor plasma cytokine pattern (DCP/APCP), shown to be a more significant cytokine composite measure than IL-12 taken alone. The Table 8 stepwise regression analysis of the cytokine data from the 12 DCP+ control mice allowed for the calculation of DCP/APCP scores for each mouse. These DCP/APCP scores are plotted versus DCP dosage in […], which illustrates the significant quadratic dose-response relationships of DCP versus the derived plasma DCP/APCP composite measure. From this figure the estimated optimum dosage of DCP for maximum tumor growth inhibition is 42 mg/(kg day), while the estimated optimum dosage for maximum DCP/APCP induction is 44 mg/(kg day).

hepatitis B virus (HBV) = test: Liver HBV DNA by Southern blot hybridization in HBV transgenic mice; format: in vivo
Description: Animals. Homozygous adult female and male transgenic HBV mice were used (20.6±2.8 g). The mice were originally obtained from Dr. Frank Chisari (Scripps Research Institute, La Jolla, Calif.) (Guidotti L G, Matzke B, Schaller H & Chisari F V. High-level hepatitis B virus replication in transgenic mice. J Virol 1995; 69:6158-6169) and were subsequently raised in the Biosafety Level 3 (BL-3) area of the AAALAC-accredited USU Laboratory Animal Research Center (LARC). The animals were derived from founder 1.3.32 (Guidotti L G, Matzke B, Schaller H & Chisari F V. High-level hepatitis B virus replication in transgenic mice. J Virol 1995; 69:6158-6169). This study was conducted in accordance with the approval of the Institutional Animal Care and Use Committee of Utah State University.
(§1) Experimental design. DCP was administered per os, once daily for 14 days to randomly assigned HBV transgenic mice at 23, 7.3, and 2.3 mg/(kg d). ADV was used as a positive control at 10 mg/(kg d) using the same treatment schedule and vehicle (0.4% CMC). On day 14, mice were euthanized to collect serum and liver samples to perform liver HBV DNA, liver core and serum HBe assays, serum cytokine/chemokine profiles, and IDO metabolite assays.
Liver HBV DNA assays. Southern blot hybridization and quantitative PCR (qPCR) were performed on liver tissues (Morrey J D, Motter N E, Tam B, Lay M & Fairman J. Efficacy of cationic lipid-DNA complexes (CLDC) on hepatitis B virus in transgenic mice. Antiviral Res 2008; 79:71-79). For Southern blot hybridization, the ratio of the viral DNA bands to the transgene band was used to determine the concentration of viral DNA per host DNA. This calculation was based upon the knowledge that there were 1.3 copies of the transgene present per host cell with this line of transgenic mice. The transgene was used as an internal indicator to calculate the pg of HBV DNA per μg of homozygous cellular host DNA. For qPCR, the assay was run with a series of 10-fold dilutions of pooled liver DNA from HBV transgenic mice to obtain a standard curve. Mean C(t) values were obtained for duplicates of each sample. The mean C(t) values of each sample were used to obtain the log relative DNA values using a formula of the fit line of the standard curve.

[2] = system: serum cytokines/chemokines; test: Serum cytokine/chemokine array in HBV transgenic mice; format: in vivo
Method: as §1
Liver or serum cytokine/chemokine array. Liver samples were prepared for the Q-Plex™ mouse cytokine/chemokine array (Quansys Biosciences, Logan, Utah) as described previously (Morrey J D, Molter N E, Taro B, Lay M & Fairman J. Efficacy of cationic lipid-DNA complexes (CLDC) on hepatitis B virus in transgenic mice. Antiviral Res 2008; 79:71-79).

IDO = target: T1, IDO (Homo sapiens, UniProt P14902); test: IDO inhibition in vitro with human PBMCs (kynurenine production); format: cell-based
T1 construct: endogenous in cells; host or cells: human PBMCs (peripheral blood mononuclear cells), unstimulated or PHA-stimulated
Method: The purpose of this in vitro study was to measure the IC50 values of IDO in PBMCs for 1) calcium pterin, CaCl2, and pterin to determine measurable synergistic effects between Ca^+2 and pterin, and 2) to compare these values with those of DCP for the assessment of relative IDO inhibitory strength. IC50 (μM) values for IDO inhibition by (1:4 mol:mol) calcium pterin, DCP, CaCl2, and pterin were determined in vitro with human PBMCs (both PHA-stimulated and unstimulated) by measuring kynurenine production as previously described (Winkler et al., 2006).

[3] = Theoretical body fluid level calculated from dose; settings: 69 mg/kg ÷ 0.7 L/kg ÷ 454.4 mg/mmol; mouse
Method: DCP at the highest dose tested in mice in this study, 69 mg/kg, yields the following theoretical body fluid level: [DCP]fluid=69 mg/kg÷0.7 L/kg÷454.4 mg/mmol=220 μM.

T1 sequence (P14902 whole entry): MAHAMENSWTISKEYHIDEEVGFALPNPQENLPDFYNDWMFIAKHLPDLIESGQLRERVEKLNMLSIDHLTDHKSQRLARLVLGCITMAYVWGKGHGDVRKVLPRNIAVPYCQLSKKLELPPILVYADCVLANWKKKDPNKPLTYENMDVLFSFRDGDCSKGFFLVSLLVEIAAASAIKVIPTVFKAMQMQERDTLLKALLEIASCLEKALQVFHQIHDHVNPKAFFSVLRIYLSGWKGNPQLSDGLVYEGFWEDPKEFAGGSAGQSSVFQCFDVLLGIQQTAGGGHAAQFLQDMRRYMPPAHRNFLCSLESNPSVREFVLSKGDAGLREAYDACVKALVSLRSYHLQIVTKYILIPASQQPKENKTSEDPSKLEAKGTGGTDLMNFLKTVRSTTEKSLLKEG

Nc1nc([O-])c2nccnc2n1.Nc1nc([O-])c2nccnc2n1.[Ca+2] [DCP, dipterinyl calcium pentahydrate]
tumor growth inhibition relative to controls (FIG. 9) ([1]; 23 mg/(kg day), Day 42,43 relative tumor volume, combined data): significant tumor growth inhibition
plasma IL-4 correlated to antitumor response ([1]; DCP/APCP): increased
plasma IL-6 correlated to antitumor response ([1]; DCP/APCP): decreased
plasma IL-12 correlated to antitumor response ([1]; DCP/APCP): increased
dose range in which antitumor response and cytokine pattern are optimized ([1]; nude mice with MDA-MB-231 xenograph tumors): 40-46 mg/(kg day)
estimated optimum dosage for maximum DCP/APCP induction ([1]; quadratic fit, FIG. 11): 44 mg/(kg day)
estimated optimum dosage for maximum tumor growth inhibition ([1]; quadratic fit, FIG. 11): 42 mg/(kg day)
Liver HBV DNA (Southern), Female levels (mean ± SEM) (hepatitis B virus (HBV); 2.3 mg/(kg d)): 12.7 ± 1.9 pg/µg
Liver HBV DNA (Southern), Female levels (mean ± SEM) (hepatitis B virus (HBV); 7.3 mg/(kg d)): 17.3 ± 3.5 pg/µg
Liver HBV DNA (Southern), Female levels (mean ± SEM) (hepatitis B virus (HBV); 23.0 mg/(kg d)): 10.6 ± 1.6 pg/µg
Liver HBV DNA (Southern), Male levels (mean ± SEM) (hepatitis B virus (HBV); 2.3 mg/(kg d)): 46.4 ± 10.8 pg/µg
Liver HBV DNA (Southern), Male levels (mean ± SEM) (hepatitis B virus (HBV); 7.3 mg/(kg d)): 50.4 ± 10.3 pg/µg
Liver HBV DNA (Southern), Male levels (mean ± SEM) (hepatitis B virus (HBV); 23.0 mg/(kg d)): 36.0 ± 10.6 pg/µg
serum chemokine RANTES versus controls ([2]; male HBV mice, 2.3 mg/(kg day)): significant decrease
IL-4, Female levels (mean ± SEM) ([2]; serum, female, 7.3 mg/(kg d)): 241 ± 53 rel. pg/ml
IL-9, Female levels (mean ± SEM) ([2]; serum, female, 7.3 mg/(kg d)): 185 ± 28 rel. pg/ml
IL-12, Female levels (mean ± SEM) ([2]; serum, female, 7.3 mg/(kg d)): 642 ± 11 rel. pg/ml
IL-4, Male levels (mean ± SEM) ([2]; serum, male, 7.3 mg/(kg d)): 87 ± 28 rel. pg/ml
IL-9, Male levels (mean ± SEM) ([2]; serum, male, 7.3 mg/(kg d)): 112 ± 13 rel. pg/ml
IL-12, Male levels (mean ± SEM) ([2]; serum, male, 7.3 mg/(kg d)): 575 ± 17 rel. pg/ml
IC50 (IDO; PHA stimulated per Table 3): 320 µM
IC50 (IDO; unstimulated per Table 3): 470 µM
theoretical body fluid level [DCP]fluid [3]: 220 µM

From patent publication US20120251495A1, “PTERIN BASED THERAPIES FOR INFLAMMATORY CONDITIONS” (priority 2008, published 2012)
